Data set [1] deals with PPAR responsive elements (PPRE). The data set is described as follows: PPAR luciferase assay (PPRE reporter) in HepG2 cells. In kind it is cell-based. As to conditions: 25 μM, 24 hrs. As for the experimental part:
Aliquots of 50 μM PP1 and FF in DMSO were added to 500 μl to heparinized human blood to a final concentration of 50 μM. Following incubation at 37° C. for the indicated time points, the samples were frozen at −80° C., and later prepared for HPLC-based detection of the compounds. Please note that FF is converted to FA in the presence of human blood. […] Data represent average values with standard deviation (n=3). panel B: Water solubility. FF and PP1, were added to water to a final concentration of 50 mM and sonicated in an ultrasonic bath (Branson 1510 Digital Heated Ultrasonic bath) for one hour at room temperature. The samples were then centrifuged for 10 minutes at 16000×g, and the supernatant filtered through 0.45 μm syringe filter. Water solubilized PP1 and FF were subsequently processed for HPLC analysis (see Methods). Data represent average values with standard deviation (n=3). panel C: Effects of PP compounds on PPAR responsive elements (PPRE). The PPAR transcriptional activity was determined in HepG2 cells by the JsTkpGL3 reporter plasmid, which contains a firefly luciferase gene driven by the PPRE, which consists of three copies of the J site from the apo-AII gene promoter. To normalize for efficiency of transfection the cells were additionally transfected with the pSV40-GLuc (New England Biolabs, Ipswich, Mass.) control plasmid. […] The luciferase activity was detected with Dual-Luciferase reporter assay system (Promega, Madison, Wis.), and the resulting luminescence measured with Synergy 2 microplate reader (BioTek, Winooski, Vt.). Data represent average values with standard deviation (n=6).
PPAR Luciferase Assay—The PPAR transcriptional activity was determined by utilizing the JsTkpGL3 reporter plasmid, which contains a firefly luciferase gene driven by the PPAR responsive element (PPRE), which consists of three copies of the J site from the apo-AII gene promoter. Together with JsTkpGL3 plasmid HepG2 cells were transfected with pSV40-GLuc (New England Biolabs, Ipswich, Mass.) control plasmid expressing Gaussia luciferase under the control of the constitutive SV40 early promoter to normalize for efficiency of transfection. […] The luciferase activity was detected with Dual-Luciferase reporter assay system (Promega, Madison, Wis.), and the resulting luminescence measured with Synergy 2 microplate reader (BioTek, Winooski, Vt.).

For data set [2], the system named is LN229 human glioblastoma cell line. Kind of data set: Cell viability (MTT assay), LN229. The settings on record: MTT. In kind it is cell-based. In general terms: Tetrazolium dyes change colour on reduction, which living cells bring about.
For data set [3] the following is noted: mouse, in vivo; cited from earlier work.
Data set [4] deals with mitochondrial respiration and glycolysis in LN-229 human glioblastoma cells. The data set is described as follows: Metabolic parameters, Extracellular Flux Analyzer (OCR/ECAR). In kind it is cell-based. As to conditions: 25 μM, LN229. As to the method: Metabolic responses of LN-229 human glioblastoma cells were evaluated with Extracellular Flux Analyzer XF24 (Seahorse Biosciences, North Billerica, Mass.). Prior each assay the cells were plated at 4×10^4 cells/well in 24-well plates in growth supporting media. At the time of measurement, growth media were replaced with serum-free XF medium (Seahorse) in cartridges equipped with oxygen-sensitive and pH-sensitive fluorescent probes. The oxygen consumption rate (OCR; indicative of mitochondrial respiration) and acidification rate (ECAR; indicative of glycolysis) were evaluated after injecting the following metabolic toxins: oligomycin, FCCP; rotenone; and antimycin A. Immediate metabolic effects were determined by comparing OCR and ECAR values in cells pre-incubated with DMSO (vehicle), or with PP1 and FF, all used at 25 μM. A: Representative experiment in which real OCR (pmol/min) and ECAR (mpH/min) values are shown. Other relevant metabolic parameters calculated from this experiment include ATP production, Spare Respiratory Capacity, basal OCR levels and proton leak. B: Average OCR and ECAR data (% change over basal OCR and ECAR values) from three independent experiments repeated 5 times (n=15).
Evaluation of metabolic parameters—Metabolic responses of human glioblastoma cells were evaluated with Extracellular Flux Analyzer XFe24 (Agilent Technologies). […]

The source of these data is US20220304957A1, “ANTI-CANCER COMPOSITIONS AND METHODS OF USE” (Board of Supervisors of Louisiana State University and …, priority 2019, published 2022).

Regarding `CN(CCO)C(=O)C(C)(C)Oc1ccc(C(=O)c2ccc(Cl)cc2)cc1` [PP1, 2-[4-(4-chlorobenzoyl)phenoxy]-N-(2-hydroxyethyl)-N,2-dimethylpropanamide], the “effect on PPAR responsive elements (PPRE)” value in data set [1] is “attenuate”. Besides, the “CV = Cell viability (% of control)” value in data set [2] (1 μM) is 98.36±1.61 % of control. Further, the “CV = Cell viability (% of control)” value in data set [2] (5 μM) is recorded as 70.03±2.04 % of control. Moreover, the “CV = Cell viability (% of control)” value in data set [2] (10 μM) is recorded as 43.67±1.88 % of control. Further, in data set [3], the “brain penetration, concentration” value is 5 µM and the “estimated log BB (from experiment)” value is reported as “zero”. Moreover, in data set [4], the “extracellular acidification rate (ECAR)” value is recorded as “corresponding increases in ECAR” and the “oxygen consumption rate (OCR)” value is given as “dramatic decrease of OCR values”.
